Source: ChEMBL document CHEMBL1687864, “Carijodienone from the octocoral Carijoa multiflora. A spiropregnane-based steroid” (2011)
In brackets after ≈: the same amount, converted by molar mass.

What was measured:
Type in all cases: functional
Klebsiella pneumoniae = assay: Antibacterial activity against Klebsiella pneumoniae by broth macrodilution method
Bacillus cereus = assay: Antibacterial activity against Bacillus cereus by broth macrodilution method
Proteus mirabilis = assay: Antibacterial activity against Proteus mirabilis by broth macrodilution method
Enterococcus faecalis = assay: Antibacterial activity against Enterococcus faecalis by broth macrodilution method
Escherichia coli = assay: Antibacterial activity against Escherichia coli by broth macrodilution method
Staphylococcus aureus = assay: Antibacterial activity against Staphylococcus aureus by broth macrodilution method
Salmonella = assay: Antibacterial activity against Salmonella by broth macrodilution method

| MIC (Klebsiella pneumoniae) | MIC (Bacillus cereus) | MIC (Proteus mirabilis) | MIC (Enterococcus faecalis) | MIC (Escherichia coli) | MIC (Staphylococcus aureus) | MIC (Salmonella) | Compound |
| --- | --- | --- | --- | --- | --- | --- | --- |
| 5 µg/mL (≈ 16.9 µM) | 6 µg/mL (≈ 20.2 µM) | – | – | – | – | – | C=C[C@H]1CC[C@H]2[C@@H]3CC[C@@]4(C=CC(=O)C=C4C)[C@H]3CC[C@]12C [CARIJODIENONE] |
| > 40 µg/mL | > 40 µg/mL | > 40 µg/mL | > 40 µg/mL | > 40 µg/mL | > 40 µg/mL | > 40 µg/mL | C=C[C@H]1CC[C@H]2[C@@H]3CCC4=CC(=O)C=C[C@]4(C)[C@H]3CC[C@]12C |
